From article PMC4574934, “Gliadin Induces Neutrophil Migration via Engagement of the Formyl Peptide Receptor, FPR1” (PLoS ONE, 2015)

Test system: human neutrophils
Assay: EZ-TAXIScan chemotaxis assay, human neutrophils
Type: cell-based
Set-up: key to Chemotactic response: moderate (++) response; stronger chemotactic response (+++)
Conditions: for Chemotactic response / Chemotaxis Index (CI) / Speed: Table 2, peptide 20 ng/mL, 1-3 experiments; for Chemotaxis Index (CI), Control / Speed, Control: no cyclosporine H
Description: Heparinized venous blood was centrifuged over a Ficoll-Paque PLUS gradient (d = 1.077 g/ml, GE Healthcare, Boston, MA). The sedimented granulocyte/erythrocyte fraction was collected, and erythrocytes were lysed with cold lysis buffer (155 mM NH4Cl, 10 mM KHCO3, 0.1 mM EDTA). Cells were resuspended in HBSS without Ca^2+/Mg^2+ (Thermo Scientific, Tewksbury, MA), and viability and purity were assessed as described above. Viability of neutrophils was >95%, purity was 98–99%.
Neutrophils were counted and applied in the EZ-TAXIScan chemotaxis assay. […] The EZ-TAXIScan chamber (Effector Cell Institute, Tokyo) was assembled as described by the manufacturer. Cell migration was recorded every 15 seconds for 30 minutes at 37°C in a humidified environmental chamber. Coverslips and chips used in the chamber were coated with 1% BSA at room temperature for 1 hour. All glass coverslips were ultrasonicated and washed before use. Cell migration analysis was conducted with MATLAB software. Cell tracks were subsequently used to compute the chemotaxis index (CI) and speed for each tracked cell at each time step, as well as the average CI and average speed for each experiment.

[1] = Table 3, in the presence of cyclosporine H (FPR1 inhibitor), 2-3 experiments
[2] = Table 1, neutrophils pretreated with cyclosporine H (FPR1 inhibitor), 5 experiments
[3] = human neutrophils pretreated with cyclosporine H

Row | Molecule | Chemotactic response | Chemotaxis Index (CI) | Speed | further results
1 | QIPEQSQCQAIHNVVHAIIL [alpha-gliadin synthetic library peptide] | +++ | 0.33 | 8.64 μm/minute | –
2 | PQNPSQQHPQEQVPLVQQQQ [alpha-gliadin synthetic library peptide] | ++ | 0.23 | 6.73 μm/minute | –
3 | GSVQPQQLPQFEEIRNLALQ [alpha-gliadin synthetic library peptide] | +++ | 0.34 ± 0.01 | 8.10 ± 0.18 μm/minute | Chemotaxis Index (CI), Cyclosporine H [1]: 0.02 ± 0.01; Speed, Cyclosporine H [1]: 0.30 ± 0.06 μm/minute; Chemotaxis Index (CI), Control (Table 3, 2-3 experiments): 0.33 ± 0.07; Speed, Control (Table 3, 2-3 experiments): 7.90 ± 0.87 μm/minute
4 | PQQPISQQQQQQQQQQQQQQ [alpha-gliadin synthetic library peptide] | ++ | 0.29 | 7.62 μm/minute | –
5 | PFPQPQLPYLQPQPFRPQQP [alpha-gliadin synthetic library peptide] | ++ | 0.21 ± 0.01 | 9.94 ± 0.09 μm/minute | –
6 | QQYPLGQGSFRPSQQNPLAQ [alpha-gliadin synthetic library peptide] | ++ | 0.21 | 8.08 μm/minute | –
7 | PPYCTIVPFGIFGTNYR [alpha-gliadin synthetic library peptide] | ++ | 0.29 ± 0.01 | 8.55 ± 0.11 μm/minute | –
8 | CCCCC/C=C\C[C@@H](O)/C=C/C=C/C=C\[C@@H](O)CCCC(=O)O [LTB4, leukotriene B4, reference compound] | – | – | – | Chemotaxis Index (CI), Cyclosporine H [2]: 0.49 ± 0.01; Speed, Cyclosporine H [2]: 9.23 ± 0.07 μm/minute; Chemotaxis Index (CI), Control (Table 1, 5 experiments): 0.51 ± 0.01; Speed, Control (Table 1, 5 experiments): 9.68 ± 0.30 μm/minute
9 | MVRVPVPQLQPQNPSQQHPQ [alpha-gliadin synthetic library peptide] | ++ | 0.30 ± 0.01 | 6.68 ± 1.92 μm/minute | Chemotaxis Index (CI), Cyclosporine H [1]: 0.03 ± 0.01; Speed, Cyclosporine H [1]: 0.45 ± 0.11 μm/minute; Chemotaxis Index (CI), Control (Table 3, 2-3 experiments): 0.28 ± 0.03; Speed, Control (Table 3, 2-3 experiments): 7.50 ± 1.95 μm/minute
10 | cyclosporine H [reference compound] | – | – | – | effect on PT-gliadin-induced chemotaxis [3]: completely abrogated; effect on fMLP-mediated neutrophil chemotaxis [3]: abolished; effect on leukotriene B4 (LTB4)-mediated chemotaxis [3]: remained unaffected
11 | QQHNIAHGRSQVLQQSTYQL [alpha-gliadin synthetic library peptide] | +++ | 0.28 ± 0.01 | 10.17 ± 1.45 μm/minute | Chemotaxis Index (CI), Cyclosporine H [1]: 0.05 ± 0.02; Speed, Cyclosporine H [1]: 0.48 ± 0.19 μm/minute; Chemotaxis Index (CI), Control (Table 3, 2-3 experiments): 0.27 ± 0.02; Speed, Control (Table 3, 2-3 experiments): 6.65 ± 0.33 μm/minute
12 | QVLQQSTYQLLQELCCQHLW [alpha-gliadin synthetic library peptide] | ++ | 0.33 | 7.49 μm/minute | –
13 | SSQVSFQQPLQQYPLGQGSF [alpha-gliadin synthetic library peptide] | ++ | 0.19 | 7.65 μm/minute | –
14 | LQELCCQHLWQIPEQSQCQA [alpha-gliadin synthetic library peptide] | ++ | 0.18 | 8.85 μm/minute | –
